Measured values as given in patent US12479834B2, “Phenol compound or salt thereof” (TAIHO PHARMACEUTICAL CO., LTD., priority 2019, dated 2025).

Tests used:
[1] = tested on: NCI-H358 cells; test: Growth inhibition of KRAS-G12C mutant cell line NCI-H358 (CellTiter-Glo 2.0); format: cell-based; details: Homo sapiens, 72 h; NCI-H358, 3-day culture with compound
Description: KRAS-G12C mutant human lung cancer cell line NCI-H358 cells (ATCC, Cat #: CRL-5807) were suspended in RPMI1640 medium (manufactured by Fujifilm Wako Pure Chemical Corp.) containing 10% fetal bovine serum. The cell suspension was seeded at 500 cells/well into the wells of a 384-well flat-bottom microplate and cultured at 37° C. for 1 day in an incubator containing 5% CO2. The compound of the present invention was dissolved in DMSO and diluted with DMSO such that the concentration of the test compound was 500 times the final concentration. The solution of the test compound in DMSO was diluted with the medium used for suspending the cells, and the resultant was added to each well of the cell culture plate such that the final concentration of DMSO was 0.2%, followed by culture at 37° C. for another 3 days in an incubator containing 5% CO2.
Growth inhibition rate (%)=(C−T)/(C)×100 • T: the emission intensity in a well supplemented with the test compound. • C: the emission intensity in a well not supplemented with the test compound.

[2] = molecular target: T1, KRAS G12C mutant (Homo sapiens, UniProt P01116, G12C); test: Inhibition of SOS1-mediated nucleotide (GDP-GTP) exchange reaction of KRAS G12C mutant, BODIPY FL GDP fluorescence; format: biochemical; details: preincubated 25° C. 4 hours with 25 nM KRAS G12C bound with BODIPY FL GDP; SOS1 100 nM, GppNHp 1 μM, 30 minutes
T1 construct: 50 μM G12C K-Ras4B (1-169) protein and 1 mM BODIPY® FL GDP; His tag (N, cleaved yes); made in house; host or cells: E. coli BL21 (DE3)
Summary of the method: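 KRAS G12C (1-169) loaded with BODIPY FL GDP (25 nM) was preincubated with compound (5% DMSO) for 4 h at 25 °C. Exchange then ran 30 min with SOS1 (564-1049, 100 nM) and 1 µM GppNHp. IC50 came from the 485/520 nm fluorescence change, normalized to DMSO and no-GppNHp controls.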

[3] = molecular target: T2, G12C K-Ras4B (1-169) (Homo sapiens, UniProt P01116, G12C); test: Binding to KRAS G12C mutant, compound binding rate by LC-MS; details: final compound concentration 2 μM, 1 μM protein, 2 hours at 25° C.
T2 construct: G12C K-Ras4B (1-169) protein, which was a KRAS G12C mutant; His tag (N, cleaved yes); made in house; host or cells: E. coli BL21 (DE3)
Summary of the method: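 Covalent labelling at 2 μM final compound on a mix of 1 μM each wild-type and G12C K-Ras4B (1-169) (E. coli-expressed, tag removed) in 1×TBS, 0.1 mM TCEP, 2 h at 25° C., quenched with formic acid. Intact-protein ESI Q-TOF LC-MS; binding rate from adduct vs unbound protein signal, graded A–E in 20% bands.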

## C=CC(=O)N1CC(NC(=O)c2cnc(Cc3cc(C(C)(C)C)c(Cl)cc3O)n2C)C1 [Example 97, N-(1-Acryloylazetidin-3-yl)-2-(5-(tert-butyl)-4-chloro-2-hydroxybenzyl)-1-methyl-1H-imidazole-5-carboxamide]
[1]
  IC50: 683 nM
[2]
  IC50: 22 nM
[3]
  binding rate for G12C K-Ras4B (1-169): A (80% or more)

## C=CC(=O)N1CC(NC(=O)c2c(C)nc(CNc3cc(C(C)(C)C)c(Cl)cc3O)n2C)C1 [Example 39, N-(1-Acryloylazetidin-3-yl)-2-(((5-(tert-butyl)-4-chloro-2-hydroxyphenyl)amino)methyl)-1,4-dimethyl-1H-imidazole-5-carboxamide]
[1]
  IC50: 112 nM
[2]
  IC50: 5 nM
[3]
  binding rate for G12C K-Ras4B (1-169): A (80% or more)

## C=CC(=O)N1CC(NC(=O)c2c(C)nc(CNc3cc(C(C)(C)C)c(Cl)cc3O)n2CCCC)C1 [Example 43, N-(1-Acryloylazetidin-3-yl)-1-butyl-2-(((5-(tert-butyl)-4-chloro-2-hydroxyphenyl)amino)methyl)-4-methyl-1H-imidazole-5-carboxamide]
[1]
  IC50: 351 nM
[2]
  IC50: 7 nM
[3]
  binding rate for G12C K-Ras4B (1-169): A (80% or more)

## C=CC(=O)N1CC(NC(=O)c2c(C)nc(CNc3cc(C(C)(C)C)c(Cl)cc3O)n2C(C)C)C1 [Example 42, N-(1-Acryloylazetidin-3-yl)-2-(((5-(tert-butyl)-4-chloro-2-hydroxyphenyl)amino)methyl)-1-isopropyl-4-methyl-1H-imidazole-5-carboxamide]
[1]
  IC50: 301 nM
[2]
  IC50: 11 nM
[3]
  binding rate for G12C K-Ras4B (1-169): A (80% or more)

## C=CC(=O)N1CC(NC(=O)c2ccc(CNc3cc(C(C)(C)C)c(Cl)cc3O)o2)C1 [Example 1, N-(1-Acryloylazetidin-3-yl)-5-(((5-(tert-butyl)-4-chloro-2-hydroxyphenyl)amino)methyl)furan-2-carboxamide]
[1]
  IC50: 4110 nM
[2]
  IC50: 326 nM
[3]
  binding rate for G12C K-Ras4B (1-169): A (80% or more)

## C=CC(=O)N1CC(NC(=O)c2c(C)nc(CNc3cc(C(C)(C)C)c(Cl)cc3O)n2CCC)C1 [Example 44, N-(1-Acryloylazetidin-3-yl)-2-(((5-(tert-butyl)-4-chloro-2-hydroxyphenyl)amino)methyl)-4-methyl-1-propyl-1H-imidazole-5-carboxamide]
[1]
  IC50: 511 nM
[2]
  IC50: 9 nM
[3]
  binding rate for G12C K-Ras4B (1-169): A (80% or more)

## C=CC(=O)N1CC(NC(=O)c2c(C)nc(CNc3cc(C(C)(C)C)c(Cl)cc3O)n2C2CCCC2)C1 [Example 45, N-(1-Acryloylazetidin-3-yl)-2-(((5-(tert-butyl)-4-chloro-2-hydroxyphenyl)amino)methyl)-1-cyclopentyl-4-methyl-1H-imidazole-5-carboxamide]
[1]
  IC50: 576 nM
[2]
  IC50: 16 nM
[3]
  binding rate for G12C K-Ras4B (1-169): A (80% or more)

## C=CC(=O)N1CC(NC(=O)c2c(C)nc(CNc3cc(C(C)(C)C)c(Cl)cc3O)n2Cc2cccnc2)C1 [Example 46, N-(1-Acryloylazetidin-3-yl)-2-(((5-(tert-butyl)-4-chloro-2-hydroxyphenyl)amino)methyl)-4-methyl-1-(pyridin-3-ylmethyl)-1H-imidazole-5-carboxamide]
[1]
  IC50: 916 nM
[2]
  IC50: 5 nM
[3]
  binding rate for G12C K-Ras4B (1-169): A (80% or more)
